What was measured:
[1] = target: hexameric R6 form of insulin lispro (Homo sapiens, UniProt P01308, K53P/P52K); details: insulin lispro 100 IU/ml, FIG. 5 and FIG. 6
Excerpt: The loss of the signal at 240 nm is related to a destabilization of the hexameric R6 form and the passage from the R6 form to the T6 form.

[2] = target: hexameric form R6 of insulin aspart (Homo sapiens, UniProt P01308, P52D); details: insulin aspart 100 U/ml, FIG. 9 and FIG. 10
Excerpt: The loss of the signal at 240 nm is related to a destabilization of the hexameric form R6 and the passage from R6 form to T6 form.
FIG. 9 describes the CD signal at 240 nm (deg·cm^2·dmol^−1) on the ordinate and on the abscissa:
Circular dichroism has been performed at 240 nm on the following compositions (FIG. 10):

[3] = cited from earlier work
[4] = at 4° C.; cited from earlier work

Sequence of hexameric form R6 of insulin aspart (P01308 25-54 P52D limits assumed): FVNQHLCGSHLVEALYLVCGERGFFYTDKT
Sequence of hexameric form R6 of insulin aspart (P01308 90-110 limits assumed): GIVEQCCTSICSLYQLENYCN
Sequence of hexameric R6 form of insulin lispro (P01308 25-54 P52K/K53P limits assumed): as the sequence (P01308 25-54 P52D limits assumed) above, with D28K, K29P counted along it

O=C(O)CN(CCN(CC(=O)O)CC(=O)O)CC(=O)O [EDTA]
Impact on the CD signal at 240 nm / R6 form of insulin lispro [1]: completely deconstructs the R6 form | Impact on the CD signal at 240 nm / R6 form of insulin aspart [2]: completely deconstructs the R6 form

human insulin
Delay of action compared to a fast-acting insulin analog ([3]; dissociation of hexamers into dimers and monomers, Brange J. et al. 1999): ~20 minutes | Time after which a hypoglycemic effect occurs ([3]; injected subcutaneously): 60 min | Stability in the form of hexamers [4]: ~2 years
